“Also recorded” adds a separate entry of the source. Structures can show the parent of a compound that is named as a salt. Where two headings read alike, the source gives them in different places.
Tests used:
PAK4 kinase = PAK4 kinase (Homo sapiens, UniProt O96013); assay: Cell-free kinase assay, PAK4; assay type: biochemical; settings: read-out: IC50, inhibition of PAK4 kinase
PD-L1 = assay: Western blot of PD-L1 expression in DLD-1 cells; assay type: cell-based; settings: DLD-1 cells, 0, 1, 10, 20, 50 μM, 24 h
Procedure: (§1) Cells from a colorectal cancer cell line (DLD-1) were incubated with Compound Ia (0, 1, 10, 20, 50 μM), or with compound PF-3758309 (500 nM) for 24 h. At the end of 24 h culture, the medium was removed from the cells, and the cells were washed once with PBS. The cells were lysed in SDS-sample buffer. The resultant cell lysates were subjected to 10% SDS-PAGE to separate the proteins with different molecular weights, which then were blotted with antibodies against PD-L1, PAK1, PAK4, α-SMA and GAPDH.

[1] = tested on: EIG-1 (cholangiocarcinoma); assay: Cell proliferation, EIG-1; assay type: cell-based
From the text: (§2) Pancreatic cancer cell lines MiaPaCa-2, PANC1 (human), TB33117 (mouse), and KPCWT833 were used to test the effect of Compound Ia on cell proliferation. PANC1 and TB33117 cell lines express high levels of PAK1 and PAK4, while MiaPaCa-2 cell has low levels of PAK1 and PAK4 (Yeo, 2014 and unpublished data). […] Compound Ia was also shown to inhibit colorectal cell line MC-38, brain glioblastoma cancer cell like U-87, melanoma cell line B16F1, liver cell line HepG2, and bile duct cancer cell line EIG-1 at low to sub-micromolar IC50 values.

[2] = tested on: TB33117 (pancreatic cancer); assay: Cell proliferation, TB33117; assay type: cell-based, mouse
From the text: as §2

HepG2 (liver cancer) = assay: Cell proliferation, HepG2; assay type: cell-based; settings: Homo sapiens
From the text: as §2

PAK1 = PAK1 (Homo sapiens, UniProt Q13153); assay: Cell-free kinase assay, PAK1; assay type: biochemical
[3] = tested on: KPCWT833 (pancreatic cancer); assay: Cell proliferation, KPCWT833; assay type: cell-based
From the text: as §2

[4] = tested on: MiaPaCa-2 (pancreatic cancer); assay: Cell proliferation, MiaPaCa-2; assay type: cell-based; settings: Homo sapiens, MIA PaCa-2
From the text: as §2

[5] = tested on: immunological biomarkers in tumour tissues; assay: Immunological biomarkers in tumour tissues by flow cytometry, syngeneic mouse models of pancreatic cancer; assay type: in vivo; settings: combination with Gemcitabine
Procedure: The effects of Compound Ia on immunological biomarkers was assessed using syngeneic mouse models of pancreatic cancer.
Single cell suspension was made from tumour tissues isolated from mice treated with either gemcitabine alone or gemcitabine plus PAK227. The cell suspension was incubated with antibodies against CD45, CD4, CD8, B220, PD-L1, PD-1, CD11b and Ly6c, and then subjected to a flow-cytometry machine for cell number counting and percentage calculation.

CHEK2 = target: T1, CHEK2 (Homo sapiens, UniProt O96017); assay: ADP-Glo kinase assay, CHEK2; assay type: biochemical
T1 construct: purchased Promega (Sydney, NSW, Australia)
Procedure: The effects of Compound Ia on CHEK2 kinase activity was assessed using an ADP-Glo kinase assay kit purchased from Promega (Sydney, NSW, Australia). The assay was undertaken in accordance with the manufacturer's instructions.

U-87 (brain tumour) = assay: Cell proliferation, U-87; assay type: cell-based; settings: Homo sapiens, U-87 MG
From the text: as §2

KPC833 cells = assay: In vivo efficacy in combination with Gemcitabine, subcutaneous KPC833 tumours in C57Bl6
[6] = tested on: alpha smooth muscle actin (α-SMA); assay: Western blot of α-SMA expression in DLD-1 cells; assay type: cell-based; settings: 24 h
Procedure: as §1

MC-38 (colon cancer) = assay: Cell proliferation, MC-38; assay type: cell-based; settings: Mus musculus
From the text: as §2

B16F10 (skin cancer) = assay: Cell proliferation, B16F10; assay type: cell-based; settings: Mus musculus, B16-F10
PAK4 = assay: Western blot of PAK4 expression in DLD-1 cells; assay type: cell-based; settings: 24 h
Procedure: as §1

[7] = tested on: PANC1 (pancreatic cancer); assay: Cell proliferation, PANC1; assay type: cell-based, human
From the text: as §2

[8] = Dissolution of the prodrug in ethanol/water; assay type: physicochemical; settings: 67% ethanol in water solution

PAK1, sequence (Q13153 whole entry): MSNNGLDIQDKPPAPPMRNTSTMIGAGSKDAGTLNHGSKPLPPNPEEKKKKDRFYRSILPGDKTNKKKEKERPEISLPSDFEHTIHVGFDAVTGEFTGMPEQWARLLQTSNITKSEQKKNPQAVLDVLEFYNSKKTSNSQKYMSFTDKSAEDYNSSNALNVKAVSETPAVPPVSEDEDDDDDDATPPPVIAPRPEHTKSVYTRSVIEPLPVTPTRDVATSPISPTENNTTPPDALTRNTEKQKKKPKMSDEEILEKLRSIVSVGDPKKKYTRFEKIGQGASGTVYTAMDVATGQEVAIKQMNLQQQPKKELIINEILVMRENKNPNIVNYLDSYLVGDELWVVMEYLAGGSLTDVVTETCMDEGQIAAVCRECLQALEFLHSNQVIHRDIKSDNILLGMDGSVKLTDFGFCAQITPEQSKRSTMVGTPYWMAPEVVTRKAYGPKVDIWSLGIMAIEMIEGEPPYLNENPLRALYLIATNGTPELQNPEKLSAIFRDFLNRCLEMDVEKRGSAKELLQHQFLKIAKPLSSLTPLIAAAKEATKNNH
T1 sequence (O96017 whole entry): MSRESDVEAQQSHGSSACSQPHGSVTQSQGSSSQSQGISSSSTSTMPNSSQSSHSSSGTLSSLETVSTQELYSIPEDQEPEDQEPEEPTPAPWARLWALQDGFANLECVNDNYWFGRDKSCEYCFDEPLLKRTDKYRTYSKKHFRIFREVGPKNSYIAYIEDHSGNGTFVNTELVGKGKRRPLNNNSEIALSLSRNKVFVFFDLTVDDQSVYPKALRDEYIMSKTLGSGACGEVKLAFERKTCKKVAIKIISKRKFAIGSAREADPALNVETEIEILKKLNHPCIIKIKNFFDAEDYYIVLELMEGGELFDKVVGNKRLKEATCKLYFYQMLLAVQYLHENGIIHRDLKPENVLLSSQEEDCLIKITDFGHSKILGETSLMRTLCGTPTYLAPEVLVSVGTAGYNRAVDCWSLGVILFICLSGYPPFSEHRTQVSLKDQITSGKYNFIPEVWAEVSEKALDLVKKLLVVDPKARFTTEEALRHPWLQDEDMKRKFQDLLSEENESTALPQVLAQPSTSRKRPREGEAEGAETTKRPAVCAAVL
PAK4 kinase, sequence (O96013 whole entry): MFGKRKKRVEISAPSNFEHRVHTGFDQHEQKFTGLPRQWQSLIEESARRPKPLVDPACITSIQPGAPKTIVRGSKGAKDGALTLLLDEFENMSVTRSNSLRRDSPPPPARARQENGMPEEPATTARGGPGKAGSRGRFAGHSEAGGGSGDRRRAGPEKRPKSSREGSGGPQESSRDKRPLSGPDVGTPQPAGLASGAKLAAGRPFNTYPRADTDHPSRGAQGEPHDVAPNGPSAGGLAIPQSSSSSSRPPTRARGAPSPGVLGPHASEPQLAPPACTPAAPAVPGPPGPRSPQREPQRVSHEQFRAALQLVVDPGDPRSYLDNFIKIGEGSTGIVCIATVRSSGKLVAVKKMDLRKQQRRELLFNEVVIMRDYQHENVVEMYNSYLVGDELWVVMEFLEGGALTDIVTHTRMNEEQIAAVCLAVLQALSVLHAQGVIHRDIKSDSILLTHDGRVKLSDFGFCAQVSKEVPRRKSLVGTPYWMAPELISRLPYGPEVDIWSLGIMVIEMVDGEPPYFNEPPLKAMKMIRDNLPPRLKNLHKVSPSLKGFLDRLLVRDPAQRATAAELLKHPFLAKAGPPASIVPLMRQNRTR

With `CNc1ncc(-c2ccc(Cc3c(Cl)cc(OC)cc3Cl)o2)cn1` [Compound Ia, 5-[5-[(2,6-dichloro-4-methoxyphenyl)methyl]furan-2-yl]-N-methylpyrimidin-2-amine] as the molecule, how does the IC50 (PAK4 kinase) read?
The IC50 was 200 to 500 nM.

What about the “expression of PD-L1” value (PD-L1) of the same molecule?
Its value is “dose-dependently inhibited”.

And the “expression of PD-L1” value (PD-L1; listed as Compound Ta)?
Its value is “reduced the expression of PD-L1 to a comparable level”.

What about the IC50 [1] of the same molecule?
Its IC50 is 4630 nM.

What about the IC50 [2] of the same molecule?
Its IC50 is 1000 to 2000 nM.

What about the IC50 ([2]; Mus musculus) of the same molecule?
The IC50 was 1720 nM.

And the IC50 (HepG2 (liver cancer))?
Its IC50 is 3760 ± 660 nM.

What about the “effect on the kinase activity of PAK1” value (PAK1) of the same molecule?
The value was “did not show significant effect”.

What about the IC50 [3] of the same molecule?
The IC50 was 1230 ± 390 nM.

What about the IC50 [4] of the same molecule?
Its IC50 is 8290 nM.

And the “expression of immunological biomarkers in tumour tissues compared to Gemcitabine alone” value [5]?
The value was “increases the expression of immunological biomarkers; also recorded: increases various immunological biomarkers”.

What about the IC50 (CHEK2) of the same molecule?
Its IC50 is 737 nM.

And the IC50 (U-87 (brain tumour))?
Its IC50 is 6550 ± 3550 nM.

What about the “toxicity (body weight)” value (KPC833 cells; combination with Gemcitabine) of the same molecule?
Its value is “no body weight loss was observed”.

What about the “tumour volume compared to untreated control tumours” value (KPC833 cells; combination with Gemcitabine, 21 days and 31 days, 40 mg/Kg subcutaneous every other day) of the same molecule?
Its value is “regression of pancreatic tumour growth”.

And the “efficacy against advanced tumours compared to Gemcitabine alone” value (KPC833 cells; combination with Gemcitabine, tumour size=100 mm^3)?
The value was “improved efficacy”.

What about the “tumour volume over 21 days compared to gemcitabine alone” value (KPC833 cells; intra-tumour injection 10 mg/kg on day 1, followed by gemcitabine 50 mg/kg) of the same molecule?
The value was “decreased tumour volume”.

What about the “expression of alpha smooth muscle actin (α-SMA)” value [6] of the same molecule?
Its value is “reduced expression”.

And the IC50 (MC-38 (colon cancer))?
Its IC50 is 460 ± 390 nM.

What about the IC50 (B16F10 (skin cancer)) of the same molecule?
Its IC50 is 13300 nM.

And the “expression of PAK4” value (PAK4)?
Its value is “reduced expression”.

And the IC50 ([7]; Homo sapiens, PANC-1, PANC1)?
Its IC50 is 1110 nM.

What about the IC50 ([7]; PANC1) of the same molecule?
The IC50 was 1000 to 2000 nM.

For `COc1cc(Cl)c(Cc2ccc(-c3cnc(NC(=O)CN)nc3)o2)c(Cl)c1` [Compound Ic, 2-amino-N-(5-{5-[(2,6-dichloro-4-methoxyphenyl)methyl]furan-2-yl}pyrimidin-2-yl)acetamide hydrochloride], which solubility in ethanol/water [8] is on record?
Its solubility in ethanol/water is “able to be dissolved”.

What does the source list for `Cc1nc(Nc2n[nH]c3c2CN(C(=O)N[C@H](CN(C)C)c2ccccc2)C3(C)C)c2sccc2n1` [PF3758309, reference compound]?
IC50 ([2]; Mus musculus): 805 nM; IC50 [4]: 87 nM; IC50 ([7]; Homo sapiens, PANC-1, PANC1): 500 nM

Source: US12590080B2, “Compounds” (PACKINAX PTY LTD, priority 2020, dated 2026)
